Experimental data taken from the supplement of paper PMC12076712.
± gives the standard deviation of the averaged measurements.

Experiments:
SPR = SPR (UniProt P35270); test: pIC50, competition of probe 3 labelling in live cells; conditions: cell material: Jurkat cells
KSR1 = target: T1, KSR1 (UniProt Q8IVT5); test: pIC50, kinobeads binding competition; conditions: cell material: Jurkat lysate
T1 sequence (whole entry): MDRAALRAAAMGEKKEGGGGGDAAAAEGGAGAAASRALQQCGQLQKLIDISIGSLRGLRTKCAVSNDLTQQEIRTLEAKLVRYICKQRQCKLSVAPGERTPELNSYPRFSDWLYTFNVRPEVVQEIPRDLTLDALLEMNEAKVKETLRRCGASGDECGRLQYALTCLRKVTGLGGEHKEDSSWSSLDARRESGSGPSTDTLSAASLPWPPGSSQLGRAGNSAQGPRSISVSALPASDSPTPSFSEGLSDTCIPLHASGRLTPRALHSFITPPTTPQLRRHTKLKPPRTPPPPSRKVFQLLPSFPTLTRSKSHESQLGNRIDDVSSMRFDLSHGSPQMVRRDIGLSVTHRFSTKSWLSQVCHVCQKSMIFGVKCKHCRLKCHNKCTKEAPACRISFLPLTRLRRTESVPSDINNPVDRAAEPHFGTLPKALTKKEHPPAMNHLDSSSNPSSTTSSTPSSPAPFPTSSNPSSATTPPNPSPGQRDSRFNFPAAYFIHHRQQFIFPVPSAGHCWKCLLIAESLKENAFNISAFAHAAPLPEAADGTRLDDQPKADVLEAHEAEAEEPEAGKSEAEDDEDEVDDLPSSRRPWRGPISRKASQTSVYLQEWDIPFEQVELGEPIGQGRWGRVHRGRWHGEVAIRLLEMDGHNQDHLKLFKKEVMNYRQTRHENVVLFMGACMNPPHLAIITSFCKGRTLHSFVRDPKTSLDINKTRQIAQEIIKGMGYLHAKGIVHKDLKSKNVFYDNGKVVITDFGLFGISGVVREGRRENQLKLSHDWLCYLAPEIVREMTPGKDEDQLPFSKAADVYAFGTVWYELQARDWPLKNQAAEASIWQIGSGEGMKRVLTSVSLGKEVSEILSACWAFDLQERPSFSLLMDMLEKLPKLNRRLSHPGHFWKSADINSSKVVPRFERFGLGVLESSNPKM

PIK3R4 = PIK3R4 (UniProt Q99570); test: pIC50, kinobeads binding competition; conditions: cell material: Jurkat lysate
TRRAP = TRRAP (UniProt Q9Y4A5); test: pIC50, kinobeads binding competition; conditions: cell material: Jurkat lysate
MASTL = target: T2, MASTL (UniProt Q96GX5); test: pIC50, kinobeads binding competition; conditions: cell material: Jurkat lysate
T2 sequence (whole entry): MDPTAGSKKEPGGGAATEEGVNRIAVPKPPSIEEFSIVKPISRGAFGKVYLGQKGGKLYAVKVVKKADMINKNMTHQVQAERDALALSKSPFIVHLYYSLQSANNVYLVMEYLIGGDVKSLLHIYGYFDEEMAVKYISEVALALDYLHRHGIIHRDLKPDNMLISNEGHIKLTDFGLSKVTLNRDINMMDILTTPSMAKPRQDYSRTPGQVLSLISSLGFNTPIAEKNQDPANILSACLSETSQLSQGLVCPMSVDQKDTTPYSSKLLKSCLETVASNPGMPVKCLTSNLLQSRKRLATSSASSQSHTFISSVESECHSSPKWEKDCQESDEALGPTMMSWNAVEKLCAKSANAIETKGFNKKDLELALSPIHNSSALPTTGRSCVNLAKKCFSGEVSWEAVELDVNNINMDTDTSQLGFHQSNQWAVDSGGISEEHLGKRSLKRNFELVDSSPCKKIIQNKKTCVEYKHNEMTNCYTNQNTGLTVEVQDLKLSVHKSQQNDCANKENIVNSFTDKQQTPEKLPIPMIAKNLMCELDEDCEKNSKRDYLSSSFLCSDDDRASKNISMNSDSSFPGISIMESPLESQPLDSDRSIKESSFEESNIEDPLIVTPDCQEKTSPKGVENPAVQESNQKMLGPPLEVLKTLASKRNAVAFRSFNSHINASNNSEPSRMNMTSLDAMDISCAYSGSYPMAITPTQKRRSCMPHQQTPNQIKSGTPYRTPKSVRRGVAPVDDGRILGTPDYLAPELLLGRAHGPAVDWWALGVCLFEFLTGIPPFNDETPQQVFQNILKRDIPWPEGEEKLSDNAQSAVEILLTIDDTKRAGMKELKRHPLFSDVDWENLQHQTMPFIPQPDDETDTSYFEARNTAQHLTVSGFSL

PIP4K2A = target: T3, PIP4K2A (UniProt P48426); test: pIC50, kinobeads binding competition; conditions: cell material: Jurkat lysate
T3 sequence (whole entry): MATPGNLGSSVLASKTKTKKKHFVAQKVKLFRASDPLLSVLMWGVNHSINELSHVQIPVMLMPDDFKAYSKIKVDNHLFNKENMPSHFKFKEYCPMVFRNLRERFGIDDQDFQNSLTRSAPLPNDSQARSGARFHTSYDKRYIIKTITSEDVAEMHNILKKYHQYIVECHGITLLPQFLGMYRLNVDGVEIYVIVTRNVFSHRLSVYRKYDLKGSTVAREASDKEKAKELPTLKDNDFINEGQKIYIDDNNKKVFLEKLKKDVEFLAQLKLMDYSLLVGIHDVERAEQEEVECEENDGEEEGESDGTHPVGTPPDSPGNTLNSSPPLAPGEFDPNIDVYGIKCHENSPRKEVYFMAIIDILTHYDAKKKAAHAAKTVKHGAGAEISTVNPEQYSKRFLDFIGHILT

MAST4 = MAST4 (UniProt O15021); test: pIC50, kinobeads binding competition; conditions: cell material: Jurkat lysate
PBK = target: T4, PBK (UniProt Q96KB5); test: pIC50, kinobeads binding competition; conditions: cell material: Jurkat lysate
T4 sequence (whole entry): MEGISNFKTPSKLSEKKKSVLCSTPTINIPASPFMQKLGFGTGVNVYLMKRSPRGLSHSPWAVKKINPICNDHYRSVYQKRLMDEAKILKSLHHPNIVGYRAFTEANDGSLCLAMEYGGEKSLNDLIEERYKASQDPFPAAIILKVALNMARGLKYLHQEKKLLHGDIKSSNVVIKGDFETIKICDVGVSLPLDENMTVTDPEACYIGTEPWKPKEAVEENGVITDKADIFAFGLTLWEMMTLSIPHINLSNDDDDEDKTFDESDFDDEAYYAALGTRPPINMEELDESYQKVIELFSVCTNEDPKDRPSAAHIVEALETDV

MAPKAPK3 = MAPKAPK3 (UniProt Q16644); test: pIC50, kinobeads binding competition; conditions: cell material: Jurkat lysate
UniProt Q5TCX8 = test: pIC50, kinobeads binding competition; conditions: cell material: Jurkat lysate
CDK10 = CDK10 (UniProt Q15131); test: pIC50, kinobeads binding competition; conditions: cell material: Jurkat lysate
PDIK1L = PDIK1L (UniProt Q8N165); test: pIC50, kinobeads binding competition; conditions: cell material: Jurkat lysate
MAST3 = MAST3 (UniProt O60307); test: pIC50, kinobeads binding competition; conditions: cell material: Jurkat lysate

Chain of MAPKAPK3 (Q16644 whole entry, looked up): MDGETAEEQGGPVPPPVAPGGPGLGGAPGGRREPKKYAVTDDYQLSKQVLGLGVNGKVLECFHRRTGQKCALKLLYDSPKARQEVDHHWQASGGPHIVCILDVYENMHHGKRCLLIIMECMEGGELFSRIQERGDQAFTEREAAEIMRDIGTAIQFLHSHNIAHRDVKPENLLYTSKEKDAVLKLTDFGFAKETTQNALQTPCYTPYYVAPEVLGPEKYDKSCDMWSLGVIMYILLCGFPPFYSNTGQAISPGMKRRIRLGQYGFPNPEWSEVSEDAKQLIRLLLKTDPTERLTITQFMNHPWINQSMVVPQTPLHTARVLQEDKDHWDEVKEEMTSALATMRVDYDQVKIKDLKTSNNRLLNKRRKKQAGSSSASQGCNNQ
Chain of MAST4 (O15021 whole entry): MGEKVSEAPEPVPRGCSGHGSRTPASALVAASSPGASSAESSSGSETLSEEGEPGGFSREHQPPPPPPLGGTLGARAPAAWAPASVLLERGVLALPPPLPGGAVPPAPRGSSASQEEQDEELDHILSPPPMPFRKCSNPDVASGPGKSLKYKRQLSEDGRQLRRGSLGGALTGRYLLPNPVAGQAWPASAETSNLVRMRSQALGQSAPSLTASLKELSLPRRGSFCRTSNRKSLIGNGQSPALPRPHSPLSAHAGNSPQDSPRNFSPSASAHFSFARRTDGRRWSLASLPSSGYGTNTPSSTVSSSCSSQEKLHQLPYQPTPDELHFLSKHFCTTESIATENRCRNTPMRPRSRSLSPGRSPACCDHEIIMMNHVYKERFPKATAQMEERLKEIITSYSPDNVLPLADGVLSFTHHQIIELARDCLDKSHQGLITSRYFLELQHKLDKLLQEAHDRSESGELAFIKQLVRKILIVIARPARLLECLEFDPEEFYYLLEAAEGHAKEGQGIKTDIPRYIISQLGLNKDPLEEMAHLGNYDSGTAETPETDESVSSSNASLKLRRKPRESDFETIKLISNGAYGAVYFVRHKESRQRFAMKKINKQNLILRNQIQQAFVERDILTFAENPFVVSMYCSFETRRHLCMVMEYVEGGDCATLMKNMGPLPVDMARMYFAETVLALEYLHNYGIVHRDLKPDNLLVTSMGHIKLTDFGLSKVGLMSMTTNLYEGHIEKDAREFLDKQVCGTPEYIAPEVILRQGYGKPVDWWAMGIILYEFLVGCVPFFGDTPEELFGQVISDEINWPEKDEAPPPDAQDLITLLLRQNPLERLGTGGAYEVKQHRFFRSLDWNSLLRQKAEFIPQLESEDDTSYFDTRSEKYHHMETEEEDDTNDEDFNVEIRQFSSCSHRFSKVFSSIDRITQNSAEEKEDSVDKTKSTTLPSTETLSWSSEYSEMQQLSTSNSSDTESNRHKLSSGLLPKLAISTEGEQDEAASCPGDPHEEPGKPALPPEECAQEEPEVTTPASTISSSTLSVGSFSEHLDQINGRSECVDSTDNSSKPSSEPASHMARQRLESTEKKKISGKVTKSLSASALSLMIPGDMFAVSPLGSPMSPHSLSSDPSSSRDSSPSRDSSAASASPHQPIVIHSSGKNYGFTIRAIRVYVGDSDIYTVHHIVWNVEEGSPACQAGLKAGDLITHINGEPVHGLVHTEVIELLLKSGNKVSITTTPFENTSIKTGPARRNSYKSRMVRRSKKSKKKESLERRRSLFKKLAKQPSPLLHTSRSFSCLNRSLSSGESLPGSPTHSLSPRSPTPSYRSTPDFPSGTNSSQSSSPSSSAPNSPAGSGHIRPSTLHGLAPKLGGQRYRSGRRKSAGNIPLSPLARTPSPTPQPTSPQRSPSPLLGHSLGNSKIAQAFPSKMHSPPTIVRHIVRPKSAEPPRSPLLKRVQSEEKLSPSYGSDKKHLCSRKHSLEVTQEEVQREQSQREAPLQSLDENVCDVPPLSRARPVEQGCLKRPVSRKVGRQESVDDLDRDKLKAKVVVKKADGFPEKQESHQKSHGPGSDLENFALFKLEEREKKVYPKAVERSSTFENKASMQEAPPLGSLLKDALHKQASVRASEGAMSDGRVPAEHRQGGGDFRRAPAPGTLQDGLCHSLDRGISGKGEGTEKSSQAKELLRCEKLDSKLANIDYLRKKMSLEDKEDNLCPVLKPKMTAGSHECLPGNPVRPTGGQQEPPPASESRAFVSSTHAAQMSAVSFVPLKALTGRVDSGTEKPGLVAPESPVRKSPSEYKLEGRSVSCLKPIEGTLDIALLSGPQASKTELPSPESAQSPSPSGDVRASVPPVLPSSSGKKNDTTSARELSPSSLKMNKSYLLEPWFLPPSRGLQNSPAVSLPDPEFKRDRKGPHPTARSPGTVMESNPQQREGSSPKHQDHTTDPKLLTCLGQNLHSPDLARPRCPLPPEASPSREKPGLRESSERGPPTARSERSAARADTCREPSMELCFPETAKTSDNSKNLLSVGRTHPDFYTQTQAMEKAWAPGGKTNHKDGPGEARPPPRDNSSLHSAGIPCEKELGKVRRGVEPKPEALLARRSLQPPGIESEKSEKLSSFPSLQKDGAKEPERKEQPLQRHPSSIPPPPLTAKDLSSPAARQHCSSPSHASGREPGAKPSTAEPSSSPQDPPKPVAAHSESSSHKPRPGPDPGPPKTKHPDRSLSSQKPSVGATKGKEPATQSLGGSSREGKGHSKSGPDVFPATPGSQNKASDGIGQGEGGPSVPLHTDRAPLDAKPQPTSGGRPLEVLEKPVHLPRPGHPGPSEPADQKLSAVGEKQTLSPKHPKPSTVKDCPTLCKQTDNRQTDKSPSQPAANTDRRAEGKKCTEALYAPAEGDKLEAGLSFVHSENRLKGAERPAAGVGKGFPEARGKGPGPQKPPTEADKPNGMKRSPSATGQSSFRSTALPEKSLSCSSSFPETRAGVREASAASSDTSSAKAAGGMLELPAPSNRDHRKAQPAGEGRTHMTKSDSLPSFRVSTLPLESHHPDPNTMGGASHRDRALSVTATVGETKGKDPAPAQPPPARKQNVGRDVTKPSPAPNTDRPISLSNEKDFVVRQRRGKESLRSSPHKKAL
Chain of SPR (P35270 whole entry, looked up): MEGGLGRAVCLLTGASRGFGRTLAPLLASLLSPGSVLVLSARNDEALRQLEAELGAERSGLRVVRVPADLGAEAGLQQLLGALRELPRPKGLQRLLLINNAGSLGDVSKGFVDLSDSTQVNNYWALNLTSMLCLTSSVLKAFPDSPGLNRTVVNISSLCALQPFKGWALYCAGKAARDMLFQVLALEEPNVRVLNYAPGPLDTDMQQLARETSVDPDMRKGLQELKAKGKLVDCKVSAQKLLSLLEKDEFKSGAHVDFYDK
Chain of PDIK1L (Q8N165 whole entry): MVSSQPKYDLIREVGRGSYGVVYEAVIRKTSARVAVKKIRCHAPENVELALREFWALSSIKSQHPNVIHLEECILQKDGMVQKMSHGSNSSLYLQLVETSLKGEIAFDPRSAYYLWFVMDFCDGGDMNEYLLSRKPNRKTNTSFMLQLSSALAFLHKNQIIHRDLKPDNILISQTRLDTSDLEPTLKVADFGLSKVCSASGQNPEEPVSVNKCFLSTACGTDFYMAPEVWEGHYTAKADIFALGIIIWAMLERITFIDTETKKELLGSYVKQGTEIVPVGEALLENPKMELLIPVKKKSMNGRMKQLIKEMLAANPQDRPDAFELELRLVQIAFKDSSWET
Chain of PIK3R4 (Q99570 whole entry): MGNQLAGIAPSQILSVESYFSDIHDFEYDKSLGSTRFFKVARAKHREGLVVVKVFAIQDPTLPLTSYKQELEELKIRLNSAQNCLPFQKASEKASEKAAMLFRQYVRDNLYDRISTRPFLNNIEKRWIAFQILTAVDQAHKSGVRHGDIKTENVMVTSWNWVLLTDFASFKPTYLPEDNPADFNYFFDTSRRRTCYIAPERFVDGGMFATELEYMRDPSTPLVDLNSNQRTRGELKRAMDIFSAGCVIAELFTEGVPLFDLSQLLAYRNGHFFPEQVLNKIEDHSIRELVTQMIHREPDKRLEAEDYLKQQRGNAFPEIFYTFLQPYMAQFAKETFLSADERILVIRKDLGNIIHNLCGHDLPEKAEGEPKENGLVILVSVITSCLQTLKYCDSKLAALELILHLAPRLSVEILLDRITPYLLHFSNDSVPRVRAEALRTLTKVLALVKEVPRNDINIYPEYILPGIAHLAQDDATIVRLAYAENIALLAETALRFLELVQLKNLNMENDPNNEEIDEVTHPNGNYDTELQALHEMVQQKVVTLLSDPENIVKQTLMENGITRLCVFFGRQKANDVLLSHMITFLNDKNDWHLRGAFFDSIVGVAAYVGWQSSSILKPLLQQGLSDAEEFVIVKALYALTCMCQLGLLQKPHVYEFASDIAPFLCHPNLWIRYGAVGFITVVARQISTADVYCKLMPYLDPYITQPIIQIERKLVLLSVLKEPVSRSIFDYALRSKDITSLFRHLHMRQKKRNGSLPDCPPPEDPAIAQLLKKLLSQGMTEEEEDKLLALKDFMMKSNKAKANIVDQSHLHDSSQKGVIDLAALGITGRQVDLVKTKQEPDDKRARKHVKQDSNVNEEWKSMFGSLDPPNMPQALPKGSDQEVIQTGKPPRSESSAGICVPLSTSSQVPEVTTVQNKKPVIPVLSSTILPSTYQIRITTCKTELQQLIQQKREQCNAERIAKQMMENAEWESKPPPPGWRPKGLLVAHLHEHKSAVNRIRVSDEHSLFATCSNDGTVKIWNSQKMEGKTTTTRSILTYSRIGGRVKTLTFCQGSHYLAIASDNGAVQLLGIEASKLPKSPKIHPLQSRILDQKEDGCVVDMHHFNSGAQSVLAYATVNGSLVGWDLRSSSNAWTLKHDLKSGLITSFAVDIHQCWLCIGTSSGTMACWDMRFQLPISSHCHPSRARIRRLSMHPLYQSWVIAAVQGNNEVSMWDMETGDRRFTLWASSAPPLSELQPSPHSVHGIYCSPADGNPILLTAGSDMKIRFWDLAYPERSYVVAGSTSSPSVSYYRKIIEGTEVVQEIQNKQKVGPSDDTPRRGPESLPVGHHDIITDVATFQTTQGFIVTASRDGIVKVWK

Structure (SMILES)	pIC50 (SPR)	pIC50 (KSR1)	pIC50 (PIK3R4)	pIC50 (TRRAP)	pIC50 (MASTL)	pIC50 (PIP4K2A)	pIC50 (MAST4)	pIC50 (PBK)	pIC50 (MAPKAPK3)	pIC50 (UniProt Q5TCX8)	pIC50 (CDK10)	pIC50 (PDIK1L)	pIC50 (MAST3)
Cc1c(C(=O)N2CCN(CC(F)(F)F)CC2)cnn1-c1nn2cccc2c(=O)[nH]1 [QM385]	7.61 ± 0.34												
Cc1nc(Nc2ncc(C(=O)Nc3c(C)cccc3Cl)s2)cc(N2CCN(CCO)CC2)n1 [dasatinib]		4.72	< 4.52	< 4.52	< 4.52	< 4.52	< 4.52	< 4.52	6.74	< 4.52	< 4.52	4.89 ± 0.099	< 4.52
